{"source": "patent US10576151B2", "about": "“Ciclopirox for use in modulation of glucose homeostasis” (UNIVERSITY OF SOUTH CAROLINA, priority 2015, dated 2020)", "key": {"[1]": {"tested_on": "C57BI/6 mice", "test": "Intraperitoneal insulin tolerance (insulin sensitivity) test", "type": "in vivo", "experimental": "(§1) Glucose Level Determination and Intraperitoneal Insulin Tolerance Test. Mice were fasted for 6 h. Glucose levels of mice were measured by an Accu-Chek Active meter (ROCHE) with blood sample obtained from the tail. For glucose tolerance, mice were injected i.p. with 2 g glucose/kg blood glucose was checked at different time points as indicated (at either 0, 30, 60, 90, 120, 160, 220 min.). For insulin resistance test, mice were injected intraperitoneally at a dose of 0.75 units/kg with human insulin (0.75 U/kg body weight; Sigma) at different time points as indicated, as for glucose tolerance after insulin injection and blood glucose was measured as described."}, "[2]": {"tested_on": "pancreatic islets", "test": "Insulin release from islets following glucose stimulation", "type": "cell-based, mice", "details": "insulin in the media (FIG. 11A)", "experimental": "In order to understand better how CPX operates in β cells, it was tested to determine if it affected the efficiency by which insulin is produced following glucose stimulation. […] In view of the antidiabetic activity of CPX in vivo, the inhibition of insulin release appears contradictory. Thus, it was hypothesized that reduced insulin secretion may be linked to reduced ER stress and blunted unfolded protein response, which in turn could explain in the long run the increased survival and functionality of the animals that received CPX. To test this hypothesis, islets were exposed to CPX and high glucose and the levels were tested of chaperones BiP, GRP94 and CHOP that reflect the intensity of the UPR. […] In line with these observations and consistently with the insulin levels in the media (FIG. 11 at A) were also the levels of insulin in the β islets (FIG. 11 at B)."}, "[3]": {"tested_on": "p21", "test": "p21 stimulation in islets", "type": "cell-based, mice", "details": "dependence on p53", "experimental": "Western Blotting. The mouse islets were treated with CPX 20 μM for 24 h and lysed in RIPA buffer [50 mM Tris, pH 7.2; 150 mM NaCl; 1% sodium deoxycholate; 0.1% SDS; 1% Triton-X 100; 10 mM NaF; 1 mM Na3VO4; protease inhibitor cocktail (1:1000, Sigma, St. Louis, Mo.)] and were subjected to immunoblot analysis by standard methods. Proteins were resolved on a 10% SDS-PAGE and transferred to a nitrocellulose membrane (Bio-Rad, Hercules, Calif.). […] After incubation with enhanced chemiluminescence reagents (Santa Cruz biotechnology Inc.), membranes were analyzed using an Image J software for Windows. Islets from wt, p21-deficient, p53-deficient and CHOP-deficient mice were exposed to CPX at 20 μM for 24 h under increasing glucose amounts in the culture media, then they were let to recover for 48 h in normal glucose-containing media and their survival was assessed (FIG. 9). […]"}, "[4]": {"tested_on": "C57BI/6 mice", "test": "Glucose tolerance test (i.p. 2 g glucose/kg)", "type": "in vivo", "experimental": "as §1"}, "[5]": {"tested_on": "diabetic wt mice", "test": "Fasting glucose in diet-induced diabetic wild type mice", "type": "in vivo, C57BI/6 mice", "details": "wt mice diabetic by high fat diet and sweetened water; CPX 25 mg/kg daily (FIG. 5A)", "from_the_text": "In Vivo Analysis of Anti-Diabetic Effect of CPX. Mice were randomly grouped. A group of C57BI/6 mice 4-5 weeks old, were fed with either a solution of 10% sucrose and a diet containing 40% kcal as a high-fat diet (HFD; Open Source Diets (New Brunswick, N.J., USA) D12451, 40% calories/fat with free access to (10%) sweetened water (sucrose) or a control chow diet containing 10% of kcal as fat (low-fat diet) and drinking water with no added sucrose (control). Mice with a glucose concentration exceeding 180 mg/dL were considered diabetic, after 2 consecutive glucose measurements. The blood glucose levels were measured using an Accu-Check blood glucose monitor (Roche, Indianapolis, Ind., USA) using blood sample collected from the tail vein. Diabetic mice were treated with either treated daily for 20 days by oral gavages with CPX (25 mg/kg) prepared in a solution (4% ethanol, 5.2% Tween 80, and 5.2% PEG 400) or vehicle control. […] Glucose levels of mice were measured by an Accu-Chek Active meter (ROCHE) with blood sample obtained from the tail. […] For insulin resistance test, mice were injected intraperitoneally at a dose of 0.75 units/kg with human insulin (0.75 U/kg body weight; Sigma) at different time points as indicated, as for glucose tolerance after insulin injection and blood glucose was measured as described. […]"}}, "note": "Entries after “also recorded” stand apart in the source; their conditions may differ.", "data": [{"smiles": "Cc1cc(C2CCCCC2)n(O)c(=O)c1", "note": "[CPX, 6-cyclohexyl-1-hydroxy-4-methylpyridin-2(1H)-one]", "values": [{"measurement": "insulin sensitivity", "setting": "[1]; diabetic mice, CPX vs saline (FIG. 6B)", "value": "restored the response of diabetic mice to acute administration of glucose"}, {"measurement": "insulin sensitivity", "setting": "[1]; non-diabetic wt mice on normal diet, CPX vs saline (FIG. 7C)", "value": "not affected"}, {"measurement": "release of insulin", "setting": "[2]", "value": "strong inhibition of insulin production; also recorded: suppressed the release of insulin"}, {"measurement": "p21-stimulatory activity in the islets", "setting": "[3]", "value": "p53-independent"}, {"measurement": "glucose tolerance", "setting": "[4]; diabetic mice, CPX vs saline (FIG. 6A)", "value": "restored the response of diabetic mice to acute administration of glucose"}, {"measurement": "glucose tolerance", "setting": "[4]; non-diabetic wt mice on normal diet, CPX vs saline (FIG. 7B)", "value": "not affected"}, {"measurement": "blood glucose levels (fasting glucose)", "setting": "[5]", "value": "effectively improved glucose homeostasis causing reduction of blood glucose levels"}]}]}
